Experimental data as given in ChEMBL document CHEMBL1201862, “PubChem BioAssay data set” (2004).
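Five compound concentrations were applied to cells in 96-well plates for 48 hours; endpoints were derived by simple linear interpolation of the resulting dose-response curve. The concentration for 50% growth inhibition is given as GI50.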 Calls of active or inactive are those of the source. Cut-off read from the data, not from the text of the source: active = GI50 up to about 1.1 µM and inactive = higher.

Tests used:
Experiment in all cases: NCI tumour cell line growth inhibition, 48 h
[1] = system: Malme-3M
[2] = system: MDA-MB-435
[3] = system: SF-539
[4] = system: NCI/ADR-RES
[5] = system: RXF 393
[6] = system: 786-0
[7] = system: IGROV-1
[8] = system: HOP-62
[9] = system: SK-MEL-2
[10] = system: U-251
[11] = system: HOP-92
[12] = system: UO-31
[13] = system: OVCAR-8
[14] = system: UACC-62
[15] = system: A549
[16] = system: SN12C
[17] = system: HCT-15
[18] = system: SK-OV-3
[19] = system: SF-268
[20] = system: HCC 2998

SMILES	GI50 [1]	GI50 [2]	GI50 [3]	GI50 [4]	GI50 [5]	GI50 [6]	GI50 [7]	GI50 [8]	GI50 [9]	GI50 [10]	GI50 [11]	GI50 [12]	GI50 [13]	GI50 [14]	GI50 [15]	GI50 [16]	GI50 [17] [µM]	GI50 [18]	GI50 [19]	GI50 [20]
O=[N+]([O-])c1cc(Cc2cc([N+](=O)[O-])c3cccnc3c2O)c(O)c2ncccc12	6.68 µM (inactive)	10.5 µM (inactive)	10.6 µM (inactive)	3.6 µM (inactive)	5.32 µM (inactive)	5.82 µM (inactive)	3.31 µM (inactive)	9.1 µM (inactive)	11.1 µM (inactive)	3.91 µM (inactive)	5.96 µM (inactive)	4 µM (inactive)	3.6 µM (inactive)	9.48 µM (inactive)	6.56 µM (inactive)	4.55 µM (inactive)	4.23	15.7 µM (inactive)	3.52 µM (inactive)	–
CSc1nc(NC2CCCC2)c2cc[nH]c2n1	> 100 µM (inactive)	59.2 µM (inactive)	> 100 µM (inactive)	71.1 µM (inactive)	> 100 µM (inactive)	95.1 µM (inactive)	98.2 µM (inactive)	> 100 µM (inactive)	–	36.4 µM (inactive)	30.1 µM (inactive)	48.1 µM (inactive)	89.1 µM (inactive)	23.5 µM (inactive)	50.6 µM (inactive)	> 100 µM (inactive)	54.2	> 100 µM (inactive)	68.7 µM (inactive)	> 100 µM (inactive)
NS(=O)(=O)c1nnc(NS(=O)(=O)c2ccccc2[N+](=O)[O-])s1	> 100 µM (inactive)	> 100 µM (inactive)	> 100 µM (inactive)	> 100 µM (inactive)	> 100 µM (inactive)	> 100 µM (inactive)	> 100 µM (inactive)	> 100 µM (inactive)	> 100 µM (inactive)	> 100 µM (inactive)	> 100 µM (inactive)	> 100 µM (inactive)	–	> 100 µM (inactive)	> 100 µM (inactive)	–	> 100	> 100 µM (inactive)	> 100 µM (inactive)	> 100 µM (inactive)
CC(=O)N1C(Nc2ccccc2)CCN1c1ccccc1 (configuration not stated)	5.38 µM (inactive)	3.68 µM (inactive)	5.19 µM (inactive)	9.89 µM (inactive)	> 10 µM (inactive)	> 10 µM (inactive)	> 10 µM (inactive)	> 10 µM (inactive)	> 10 µM (inactive)	–	> 10 µM (inactive)	4.45 µM (inactive)	> 10 µM (inactive)	–	> 10 µM (inactive)	> 10 µM (inactive)	3.66	> 10 µM (inactive)	3.54 µM (inactive)	> 10 µM (inactive)
CO[P@@]1(=O)O[C@@H](c2ccccc2)[C@H](O)[C@@]1(O)c1ccccc1	> 100 µM (inactive)	> 100 µM (inactive)	> 100 µM (inactive)	> 100 µM (inactive)	> 100 µM (inactive)	> 100 µM (inactive)	> 100 µM (inactive)	–	> 100 µM (inactive)	> 100 µM (inactive)	> 100 µM (inactive)	> 100 µM (inactive)	> 100 µM (inactive)	> 100 µM (inactive)	> 100 µM (inactive)	> 100 µM (inactive)	> 100	> 100 µM (inactive)	> 100 µM (inactive)	–
Cc1cc(S(=O)(=O)Nc2nc3cc(-c4ccc(Cl)cc4)sc3c(=O)n2N)c(S)cc1Cl	> 100 µM (inactive)	62.2 µM (inactive)	–	52.4 µM (inactive)	37.2 µM (inactive)	45.9 µM (inactive)	59.6 µM (inactive)	36.3 µM (inactive)	75.2 µM (inactive)	43.4 µM (inactive)	72.9 µM (inactive)	44.4 µM (inactive)	50.2 µM (inactive)	31.7 µM (inactive)	> 100 µM (inactive)	50.6 µM (inactive)	45.6	63.2 µM (inactive)	86.3 µM (inactive)	94.4 µM (inactive)
COC(=O)c1ccc2c(c1)CC1(C2)Cc2cc3c(cc2C1=O)CCC3 (configuration not stated)	27.4 µM (inactive)	23.8 µM (inactive)	> 100 µM (inactive)	22 µM (inactive)	30.1 µM (inactive)	53 µM (inactive)	44.1 µM (inactive)	46.5 µM (inactive)	38.8 µM (inactive)	33.7 µM (inactive)	28.2 µM (inactive)	38.7 µM (inactive)	31.6 µM (inactive)	–	36.7 µM (inactive)	22 µM (inactive)	34.9	98.6 µM (inactive)	79.6 µM (inactive)	40.3 µM (inactive)
CCCCCCCCCCOC1C(C(O)CNCCCN(C)C)OC2OC3(CCCCC3)OC21 (configuration not stated)	1.99 µM (inactive)	2.03 µM (inactive)	–	3.31 µM (inactive)	1.93 µM (inactive)	1.9 µM (inactive)	1.93 µM (inactive)	1.75 µM (inactive)	2.32 µM (inactive)	1.84 µM (inactive)	1.07 µM (active)	2.37 µM (inactive)	2.39 µM (inactive)	2.79 µM (inactive)	3.32 µM (inactive)	2.33 µM (inactive)	1.69	3.65 µM (inactive)	2.17 µM (inactive)	2.57 µM (inactive)
c1cc(-c2ncc(-c3ccc4c(c3)CCCO4)o2)ccn1	10.4 µM (inactive)	2.36 µM (inactive)	9.38 µM (inactive)	3.94 µM (inactive)	8.83 µM (inactive)	26.6 µM (inactive)	15.6 µM (inactive)	18.1 µM (inactive)	10.8 µM (inactive)	11.2 µM (inactive)	21.6 µM (inactive)	23.2 µM (inactive)	16.7 µM (inactive)	15.6 µM (inactive)	7.41 µM (inactive)	25.8 µM (inactive)	6.24	15.6 µM (inactive)	19.3 µM (inactive)	–
CC(C)(Cl)C(Br)CCC(C)(Cl)C(Br)CBr (configuration not stated)	22.4 µM (inactive)	26.7 µM (inactive)	24.5 µM (inactive)	31.7 µM (inactive)	32.7 µM (inactive)	24.5 µM (inactive)	23.3 µM (inactive)	24.9 µM (inactive)	18.1 µM (inactive)	24.1 µM (inactive)	15.8 µM (inactive)	31.9 µM (inactive)	> 100 µM (inactive)	38.2 µM (inactive)	29.8 µM (inactive)	22.1 µM (inactive)	24.6	39.2 µM (inactive)	37.2 µM (inactive)	38.1 µM (inactive)
CC1=CCC[C@]2(C)C1=CC(=O)O[C@H]2c1ccoc1	> 100 µM (inactive)	> 100 µM (inactive)	–	> 100 µM (inactive)	> 100 µM (inactive)	> 100 µM (inactive)	> 100 µM (inactive)	> 100 µM (inactive)	> 100 µM (inactive)	> 100 µM (inactive)	> 100 µM (inactive)	44.6 µM (inactive)	> 100 µM (inactive)	> 100 µM (inactive)	> 100 µM (inactive)	> 100 µM (inactive)	> 100	> 100 µM (inactive)	> 100 µM (inactive)	> 100 µM (inactive)
N#Cc1cc2c(n(C3OC(CO)C(O)C(O)C3O)c1=S)CCC2 (configuration not stated)	> 100 µM (inactive)	> 100 µM (inactive)	> 100 µM (inactive)	> 100 µM (inactive)	> 100 µM (inactive)	> 100 µM (inactive)	> 100 µM (inactive)	> 100 µM (inactive)	> 100 µM (inactive)	> 100 µM (inactive)	> 100 µM (inactive)	> 100 µM (inactive)	> 100 µM (inactive)	> 100 µM (inactive)	> 100 µM (inactive)	> 100 µM (inactive)	> 100	–	> 100 µM (inactive)	> 100 µM (inactive)
CC1=CC(=O)/C(=C/NC(=S)NCc2ccccc2)C(=O)O1	> 100 µM (inactive)	> 100 µM (inactive)	> 100 µM (inactive)	> 100 µM (inactive)	> 100 µM (inactive)	> 100 µM (inactive)	> 100 µM (inactive)	> 100 µM (inactive)	> 100 µM (inactive)	> 100 µM (inactive)	> 100 µM (inactive)	> 100 µM (inactive)	> 100 µM (inactive)	> 100 µM (inactive)	> 100 µM (inactive)	> 100 µM (inactive)	> 100	> 100 µM (inactive)	> 100 µM (inactive)	> 100 µM (inactive)
O=C(OC1C#CCSCC#C/C=C\1)c1cnc2ccccc2n1 (configuration not stated)	> 100 µM (inactive)	> 100 µM (inactive)	> 100 µM (inactive)	0.805 µM (active)	79.8 µM (inactive)	0.461 µM (active)	> 100 µM (inactive)	> 100 µM (inactive)	> 100 µM (inactive)	> 100 µM (inactive)	> 100 µM (inactive)	> 100 µM (inactive)	0.409 µM (active)	> 100 µM (inactive)	–	> 100 µM (inactive)	> 100	> 100 µM (inactive)	> 100 µM (inactive)	> 100 µM (inactive)
S=C(S)N1CCN(c2ccc(Cl)c(Cl)c2)CC1	24.2 µM (inactive)	17.6 µM (inactive)	24.3 µM (inactive)	41.4 µM (inactive)	56.9 µM (inactive)	28.1 µM (inactive)	28.7 µM (inactive)	29.5 µM (inactive)	17 µM (inactive)	26.3 µM (inactive)	22.3 µM (inactive)	–	46.9 µM (inactive)	–	45.8 µM (inactive)	30.1 µM (inactive)	34.2	–	31.8 µM (inactive)	20.8 µM (inactive)
